Results taken from patent US5646131A, “Method for solubilizing drugs using cyclodextrins and carboxylic acids” (The Arab Company For Drug Industries And Medical …, priority 1995, dated 1997).
Values after ≈ are worked out from the molar mass of the structure shown. Like-named read-outs stand apart in the source and are kept apart here.

What was measured:
physchem = settings: water
[1] = 30° C.; for Solubility, beta-cyclodextrin + citric acid / Solubility, beta-cyclodextrin + glutaric acid / Solubility, beta-cyclodextrin + lactic acid / Solubility, beta-cyclodextrin + tartaric acid: 2% β-cyclodextrin; for Solubility, beta-cyclodextrin + lactic acid: 1% lactic acid; for Solubility in 2% aq. beta CD soln.: water containing 2% β-cyclodextrin
[2] = with β-cyclodextrin; Menard et al 1990; cited from earlier work

solubility (physchem)	Solubility, beta-cyclodextrin + glutaric acid (*trisodium salt) (2% beta-cd, 1% glutarate salt)	Solubility, beta-cyclodextrin + tartaric acid (*trisodium salt) (2% beta-cd, 1% tartrate salt)	Solubility in 2% aq. beta CD soln. (water, 2% beta-cyclodextrin)	Solubility, alpha-cyclodextrin + citric acid ([1]; 2% α-cyclodextrin, 1% citric acid, aqueous)	Solubility, alpha-cyclodextrin + glutaric acid ([1]; 2% α-cyclodextrin, 1% glutaric acid, aqueous)	Solubility, alpha-cyclodextrin + tartaric acid ([1]; 2% α-cyclodextrin, 1% tartaric acid, aqueous)	Solubility, gamma-cyclodextrin + citric acid ([1]; 2% γ-cyclodextrin, 1% citric acid, aqueous)	Solubility, gamma-cyclodextrin + glutaric acid ([1]; 2% γ-cyclodextrin, 1% glutaric acid, aqueous)	Solubility, gamma-cyclodextrin + tartaric acid ([1]; 2% γ-cyclodextrin, 1% tartaric acid, aqueous)	SMILES	Solubility, beta-cyclodextrin + citric acid ([1]; 1% citric acid, aqueous)	Solubility, beta-cyclodextrin + glutaric acid ([1]; 1% glutaric acid, aqueous)	Solubility, beta-cyclodextrin + lactic acid ([1]; aqueous)	Solubility, beta-cyclodextrin + tartaric acid ([1]; 1% tartaric acid, aqueous)	Solubility in 2% aq. beta CD soln. [1]	Relationship between solubility and concentration at different pH [2]	Solubility in water ([1]; water)
< 10 µg/mL	3000 µg/mL	1360 µg/mL	690 µg/mL (≈ 3340 µM)							CC(C)Cc1ccc(C(C)C(=O)O)cc1 (stereo not shown) [Ibuprofen]						the relationship between solubility and concentration is the same at different pH levels	
										CN1C(C(=O)Nc2ccccn2)=C(O)c2ccccc2S1(=O)=O [Piroxicam]					72 µg/mL (≈ 217 µM)		insoluble
< 10 µg/mL				2150 µg/mL	7170 µg/mL	1310 µg/mL	2200 µg/mL	6080 µg/mL	1220 µg/mL	CC(C)(C)c1ccc(C(O)CCCN2CCC(C(O)(c3ccccc3)c3ccccc3)CC2)cc1 (stereo not shown) [Terfenadine]	5680 µg/mL	5490 µg/mL	8870 µg/mL	5210 µg/mL	10 µg/mL (≈ 21.2 µM)		

SMILES	solubility (physchem)	Solubility, beta-cyclodextrin + glutaric acid (*trisodium salt) (2% beta-cd, 1% glutarate salt)	Solubility, beta-cyclodextrin + tartaric acid (*trisodium salt) (2% beta-cd, 1% tartrate salt)	Solubility in 2% aq. beta CD soln. (water, 2% beta-cyclodextrin)	Solubility, alpha-cyclodextrin + citric acid ([1]; 2% α-cyclodextrin, 1% citric acid, aqueous)	Solubility, alpha-cyclodextrin + glutaric acid ([1]; 2% α-cyclodextrin, 1% glutaric acid, aqueous)	Solubility, alpha-cyclodextrin + tartaric acid ([1]; 2% α-cyclodextrin, 1% tartaric acid, aqueous)	Solubility, gamma-cyclodextrin + citric acid ([1]; 2% γ-cyclodextrin, 1% citric acid, aqueous)	Solubility, gamma-cyclodextrin + glutaric acid ([1]; 2% γ-cyclodextrin, 1% glutaric acid, aqueous)	Solubility, gamma-cyclodextrin + tartaric acid ([1]; 2% γ-cyclodextrin, 1% tartaric acid, aqueous)	Solubility, beta-cyclodextrin + citric acid ([1]; 1% citric acid, aqueous)	Solubility, beta-cyclodextrin + glutaric acid ([1]; 1% glutaric acid, aqueous)	Solubility, beta-cyclodextrin + lactic acid ([1]; aqueous)	Solubility, beta-cyclodextrin + tartaric acid ([1]; 1% tartaric acid, aqueous)	Solubility in 2% aq. beta CD soln. [1]	Relationship between solubility and concentration at different pH [2]	Solubility in water ([1]; water)
COc1cc(N)c(Cl)cc1C(=O)NC1CCN(CCCOc2ccc(F)cc2)CC1OC (stereo not shown) [Cisapride]	3 µg/mL (≈ 6.44 µM)										550 µg/mL	2070 µg/mL	11400 µg/mL	4380 µg/mL	15 µg/mL (≈ 32.2 µM)		
